Assay results reported in patent US20240124504A1, “AROMATIC HETEROCYCLIC COMPOUND, AND PHARMACEUTICAL COMPOSITION AND APPLICATION THEREOF” (GT APEIRON THERAPEUTICS LIMITED, priority 2020, published 2024).

What was measured:
[1] = molecular target: T1, CDK12 (aa686-1082)/cyclinK complex (Homo sapiens, UniProt Q9NYV4); test: In-vitro enzymatic inhibitory activity testing, CDK12 inhibition assay (Caliper EZ Reader II); type: biochemical; conditions: CDK12/cyclinK 50 nM, 180 min at 27° C.; read-out: CDK12 IC50
T1 construct: A CDK12 (aa686-1082)/cyclinK complex (50 nM)
Summary of the method: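 CDK12 (aa686-1082)/cyclinK complex at 50 nM was pre-incubated with compound for 10 min, then reacted 180 min at 27° C with ATP and 2 μM 5-FAM-CDK9tide in pH 6.5 MES buffer with 10 mM MgCl2. Reactions were EDTA-quenched and product resolved electrophoretically; IC50 from nonlinear curve fit.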

[2] = test system: human breast cancer cells HCC70; test: Cell biological activity detection (CyQuant, 72 hours), HCC70; type: cell-based; conditions: incubation for 72 hours
Summary of the method: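 IC50 derived from CyQuant Direct nuclear staining (488 nm excitation) after 72 h compound exposure at 37 °C, 5% CO2. Compounds tested in 9 concentrations from 10 μM, 1:4 steps, 0.2% DMSO, on A2780 or HCC70 cells plated overnight at 2000/well in RPMI 1640 + 10% FBS.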

CDK2/cyclinE1 complex = CDK2/cyclinE1 complex (Homo sapiens, UniProt P24941); test: In-vitro enzymatic inhibitory activity testing, CDK2 inhibition assay (Caliper EZ Reader II); type: biochemical; conditions: CDK2/cyclinE1 0.5 nM, 180 min at 27° C.
Summary of the method: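 CDK2/cyclinE1 (0.5 nM) phosphorylated 5-FAM-CDK7tide (2 μM) in MES buffer pH 6.5 with MgCl2, Tween 20 and BSA. Substrate and product were separated electrophoretically on a Caliper EZ Reader II. IC50 values came from nonlinear dose-response fits.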

T1 sequence (Q9NYV4 686-1082, species assumed): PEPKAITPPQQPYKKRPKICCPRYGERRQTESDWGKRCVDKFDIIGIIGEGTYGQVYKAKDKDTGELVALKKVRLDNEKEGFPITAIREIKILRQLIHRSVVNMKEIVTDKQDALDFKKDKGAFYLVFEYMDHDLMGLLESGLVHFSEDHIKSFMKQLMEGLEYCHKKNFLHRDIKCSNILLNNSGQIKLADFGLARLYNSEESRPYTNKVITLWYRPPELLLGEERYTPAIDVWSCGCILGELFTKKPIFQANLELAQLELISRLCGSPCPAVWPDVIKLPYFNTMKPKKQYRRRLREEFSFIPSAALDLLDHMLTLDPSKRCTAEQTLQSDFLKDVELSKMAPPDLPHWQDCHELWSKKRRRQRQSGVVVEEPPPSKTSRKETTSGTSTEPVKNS
T1 sequence (O75909 whole entry partner, species assumed, the tested form may be a part): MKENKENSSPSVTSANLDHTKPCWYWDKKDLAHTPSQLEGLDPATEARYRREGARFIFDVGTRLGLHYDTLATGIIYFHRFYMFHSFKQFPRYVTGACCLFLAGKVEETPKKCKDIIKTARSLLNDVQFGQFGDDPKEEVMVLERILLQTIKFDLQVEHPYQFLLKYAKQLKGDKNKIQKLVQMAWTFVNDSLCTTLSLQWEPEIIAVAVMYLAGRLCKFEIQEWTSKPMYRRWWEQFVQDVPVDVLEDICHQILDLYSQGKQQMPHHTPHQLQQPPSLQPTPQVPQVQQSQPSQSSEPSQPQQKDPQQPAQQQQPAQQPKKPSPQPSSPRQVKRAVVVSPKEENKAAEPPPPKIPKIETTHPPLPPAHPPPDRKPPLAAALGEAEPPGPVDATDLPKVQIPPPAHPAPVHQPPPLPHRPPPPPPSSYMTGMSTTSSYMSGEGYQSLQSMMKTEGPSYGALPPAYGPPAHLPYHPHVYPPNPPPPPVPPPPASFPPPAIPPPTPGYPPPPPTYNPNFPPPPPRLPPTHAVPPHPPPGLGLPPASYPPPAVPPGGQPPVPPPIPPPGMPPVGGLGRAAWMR

## CP(C)(=O)c1cccc2c(-c3nc(N[C@H]4COC[C@@H]4O)ncc3C(F)(F)F)c[nH]c12 [Compound 87]
[1]
  IC50: > 50 µM
[2]; Homo sapiens, HCC70, 72 h
  IC50: < 20 nM
CDK2/cyclinE1 complex
  IC50: 0.2 to 5 µM

## CP(C)(=O)c1cccc2c(-c3nc(NCC(F)(F)CO)ncc3C(F)(F)F)c[nH]c12 [Compound 102, (3-(2-((2,2-difluoro-3-hydroxypropyl)amino)-5-(trifluoromethyl)pyrimidin-4-yl)-1H-indole-7-yl)dimethylphosphine oxide]
[1]
  IC50: > 50 µM
[2]; Homo sapiens, HCC70, 72 h
  IC50: < 20 nM
CDK2/cyclinE1 complex
  IC50: 5 to 50 µM

## CC(CO)CNc1ncc(C(F)(F)F)c(-c2c[nH]c3c(P(C)(C)=O)cccc23)n1 (single isomer, unassigned) [Compound 150]
[1]
  IC50: > 50 µM
[2]
  IC50: < 20 nM
CDK2/cyclinE1 complex
  IC50: 0.2 to 5 µM

## CP(C)(=O)c1cccc2c(-c3nc(NCCO)ncc3C(F)(F)F)c[nH]c12 [Compound 97, (3-(2-((2-hydroxyethyl)amino)-5-(trifluoromethyl)pyrimidin-4-yl)-1H-indole-7-yl)dimethylphosphine oxide]
[1]
  IC50: > 50 µM
[2]; Homo sapiens, HCC70, 72 h
  IC50: 20 to 200 nM
CDK2/cyclinE1 complex
  IC50: 0.2 to 5 µM

## C[C@@H](CO)Nc1ncc(Cl)c(-c2c[nH]c3c(P(C)(C)=O)cccc23)n1 [Compound 103, (S)-(3-(5-chloro-2-((1-hydroxypropan-2-yl)amino)pyrimidin-4-yl)-1H-indole-7-yl)dimethylphosphine oxide]
[1]
  IC50: > 50 µM
[2]; Homo sapiens, HCC70, 72 h
  IC50: 20 to 200 nM
CDK2/cyclinE1 complex
  IC50: 0.2 to 5 µM

## CP(C)(=O)c1cccc2c(-c3nc(NCCCO)ncc3C(F)(F)F)c[nH]c12 [Compound 89, (3-(2-((3-hydroxypropyl)amino)-5-(trifluoromethyl)pyrimidin-4-yl)-1H-indole-7-yl)dimethylphosphine oxide]
[1]
  IC50: > 50 µM
[2]; Homo sapiens, HCC70, 72 h
  IC50: < 20 nM
CDK2/cyclinE1 complex
  IC50: 0.2 to 5 µM

## CC(CO)CNc1ncc(C(F)(F)F)c(-c2c[nH]c3c(P(C)(C)=O)cccc23)n1 (single isomer, unassigned) [Compound 149]
[1]
  IC50: > 50 µM
[2]; Homo sapiens, HCC70, 72 h
  IC50: < 20 nM
CDK2/cyclinE1 complex
  IC50: 0.2 to 5 µM

## CP(C)(=O)c1cccc2c(-c3nc(N[C@@H]4CC[C@H]4O)ncc3C(F)(F)F)c[nH]c12 [Compound 153, (3-(2-(((1R,2R)-2-hydroxycyclobutyl)amino)-5-(trifluoromethyl)pyrimidin-4-yl)-1hydro-indole-7-yl)dimethylphosphine oxide]
[1]
  IC50: > 50 µM
[2]; Homo sapiens, HCC70, 72 h
  IC50: < 20 nM
CDK2/cyclinE1 complex
  IC50: 0.2 to 5 µM

## C[C@@H](CO)Nc1ncc(C(F)(F)F)c(-c2c[nH]c3c(P(C)(C)=O)c(F)ccc23)n1 [Compound 195]
[1]
  IC50: 5 to 50 µM
[2]; Homo sapiens, HCC70, 72 h
  IC50: < 20 nM
CDK2/cyclinE1 complex
  IC50: 0.2 to 5 µM

## CP(C)(=O)c1cccc2c(-c3nc(NC4(CO)COC4)ncc3C(F)(F)F)c[nH]c12 [Compound 114, (3-(2-((3-(hydroxymethyl)oxetan-3-yl)amino)-5-(trifluoromethyl)pyrimidin-4-yl)-1H-indole-7-yl)dimethylphosphine oxide]
[1]
  IC50: > 50 µM
[2]; Homo sapiens, HCC70, 72 h
  IC50: < 20 nM
CDK2/cyclinE1 complex
  IC50: 0.2 to 5 µM

## C[C@@H](CO)Nc1ncc(C(F)(F)F)c(-c2c[nH]c3c(P(C)(C)=O)cc(F)cc23)n1 [Compound 158]
[1]
  IC50: > 50 µM
[2]; Homo sapiens, HCC70, 72 h
  IC50: < 20 nM
CDK2/cyclinE1 complex
  IC50: 0.2 to 5 µM

## CP(C)(=O)c1cccc2c(-c3nc(N[C@H]4CC[C@@H]4O)ncc3C(F)(F)F)c[nH]c12 [Compound 154, (3-(2-(((1S,2S)-2-hydroxycyclobutyl)amino)-5-(trifluoromethyl)pyrimidin-4-yl)-1hydro-indole-7-yl)dimethylphosphine oxide]
[1]
  IC50: 5 to 50 µM
[2]; Homo sapiens, HCC70, 72 h
  IC50: < 20 nM
CDK2/cyclinE1 complex
  IC50: 0.2 to 5 µM

## CC(C)(CO)Nc1ncc(C(F)(F)F)c(-c2c[nH]c3c(P(C)(C)=O)cccc23)n1 [Compound 85, (3-(2-((1-hydroxy-2-methylpropan-2-yl)amino)-5-(trifluoromethyl)pyrimidin-4-yl)-1H-indole-7-yl)dimethylphosphine oxide]
[1]
  IC50: > 50 µM
[2]; Homo sapiens, HCC70, 72 h
  IC50: 20 to 200 nM
CDK2/cyclinE1 complex
  IC50: 5 to 50 µM
